ChEMBL document CHEMBL1201862, “PubChem BioAssay data set” (2004)
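Each compound was tested at five concentrations against cells in 96-well plates for 48 hours. At the GI50, growth is halved.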 Active and inactive are the calls of the source. Cut-off read from the data, not from the text of the source: active = GI50 up to about 1.1 µM and inactive = higher.

Key:
Test in all cases: DTP human tumour cell line panel, 48 h
786-0 = test system: 786-0
A498 = test system: A498
BT-549 = test system: BT-549
COLO 205 = test system: COLO 205
DU-145 = test system: DU-145
HCC 2998 = test system: HCC 2998
HOP-92 = test system: HOP-92
IGROV-1 = test system: IGROV-1
LOX IMVI = test system: LOX IMVI
M14 = test system: M14
MDA-MB-435 = test system: MDA-MB-435
NCI-H226 = test system: NCI-H226
NCI-H23 = test system: NCI-H23
OVCAR-3 = test system: OVCAR-3
SF-295 = test system: SF-295
SK-MEL-5 = test system: SK-MEL-5
SNB-19 = test system: SNB-19
SNB-75 = test system: SNB-75
SR = test system: SR
UO-31 = test system: UO-31

Measured: GI50

CCN(CC)P1(=S)Oc2ccc3ccccc3c2-c2c(ccc3ccccc23)O1
inactive: 786-0 > 100 µM | A498 > 100 µM | BT-549 > 100 µM | COLO 205 > 100 µM | DU-145 > 100 µM | HCC 2998 77.4 µM | HOP-92 > 100 µM | IGROV-1 89.3 µM | LOX IMVI > 100 µM | M14 > 100 µM | MDA-MB-435 > 100 µM | NCI-H226 > 100 µM | NCI-H23 > 100 µM | OVCAR-3 > 100 µM | SF-295 > 100 µM | SK-MEL-5 > 100 µM | SNB-19 > 100 µM | SNB-75 32.2 µM | SR 27.4 µM | UO-31 > 100 µM

COc1cc(S(=O)(=O)Nc2ccc(-c3csc(/N=C\c4cccs4)n3)cc2)ccc1Cl
inactive: 786-0 59.3 µM | A498 31.8 µM | BT-549 31.1 µM | COLO 205 32.5 µM | DU-145 29.4 µM | HCC 2998 29.4 µM | HOP-92 > 100 µM | IGROV-1 69.7 µM | LOX IMVI 36.2 µM | M14 61.8 µM | MDA-MB-435 29.3 µM | NCI-H226 57.4 µM | NCI-H23 53.1 µM | OVCAR-3 54.6 µM | SF-295 > 100 µM | SK-MEL-5 42.3 µM | SNB-19 32.6 µM | SNB-75 30.3 µM | SR 15.7 µM | UO-31 45.5 µM

CC(=O)C(=[N+]=[N-])C(=O)OC(C)(C)C#N
inactive: 786-0 > 10 µM | A498 > 10 µM | BT-549 > 10 µM | COLO 205 > 10 µM | DU-145 > 10 µM | HCC 2998 > 10 µM | HOP-92 > 10 µM | IGROV-1 > 10 µM | LOX IMVI > 10 µM | M14 > 10 µM | MDA-MB-435 > 10 µM | NCI-H226 > 10 µM | NCI-H23 > 10 µM | OVCAR-3 > 10 µM | SF-295 > 10 µM | SK-MEL-5 > 10 µM | SNB-19 > 10 µM | SNB-75 1.48 µM | SR > 10 µM | UO-31 > 10 µM

O=C1C2=Nc3ccccc3C(O)N2c2ccccc21 (stereo not given)
inactive: 786-0 36.6 µM | A498 18.7 µM | BT-549 28.4 µM | COLO 205 39.2 µM | DU-145 53.3 µM | HCC 2998 27.2 µM | HOP-92 > 100 µM | IGROV-1 40.2 µM | LOX IMVI 2.96 µM | M14 > 78.2 µM | MDA-MB-435 2.56 µM | NCI-H226 27.8 µM | NCI-H23 3.92 µM | OVCAR-3 11.6 µM | SF-295 35.9 µM | SK-MEL-5 1.95 µM | SNB-19 74.1 µM | SNB-75 23.6 µM | SR 86.5 µM | UO-31 46.8 µM

Cc1cccc(Cl)c1NC(=O)/C=C/c1ccccc1
inactive: 786-0 36.3 µM | A498 > 100 µM | BT-549 > 100 µM | COLO 205 > 100 µM | DU-145 67.6 µM | HCC 2998 74.6 µM | HOP-92 29.6 µM | IGROV-1 97.5 µM | LOX IMVI > 100 µM | M14 > 100 µM | MDA-MB-435 > 100 µM | NCI-H226 > 100 µM | NCI-H23 > 100 µM | OVCAR-3 > 100 µM | SF-295 36.6 µM | SK-MEL-5 95.5 µM | SNB-19 > 100 µM | SNB-75 24.2 µM | SR > 100 µM

C/C=N\n1c(C)n[nH]c1=O
inactive: 786-0 > 100 µM | A498 > 100 µM | BT-549 > 100 µM | COLO 205 > 100 µM | DU-145 > 100 µM | HCC 2998 > 100 µM | HOP-92 > 100 µM | IGROV-1 > 100 µM | LOX IMVI > 100 µM | M14 > 100 µM | MDA-MB-435 > 100 µM | NCI-H226 > 100 µM | NCI-H23 > 100 µM | OVCAR-3 > 100 µM | SF-295 > 100 µM | SK-MEL-5 > 100 µM | SNB-19 > 100 µM | SNB-75 > 100 µM | SR > 100 µM | UO-31 > 100 µM

Cc1ccc(C2=Nn3c(nc4sc5c(c4c3=O)CCCC5)SC2)cc1
inactive: 786-0 > 100 µM | A498 > 100 µM | BT-549 > 100 µM | COLO 205 > 100 µM | DU-145 > 100 µM | HCC 2998 > 100 µM | HOP-92 > 100 µM | IGROV-1 > 100 µM | LOX IMVI > 100 µM | MDA-MB-435 > 100 µM | NCI-H226 > 100 µM | NCI-H23 > 100 µM | OVCAR-3 > 100 µM | SF-295 > 100 µM | SK-MEL-5 > 100 µM | SNB-75 96.4 µM | SR > 100 µM | UO-31 > 100 µM

N#CC(C#N)[C@@H]1CCC=C(Sc2ccccc2)[C@H]1Sc1ccccc1
inactive: 786-0 2.17 µM | A498 13.5 µM | BT-549 3.23 µM | COLO 205 2.2 µM | DU-145 2.72 µM | HCC 2998 2.86 µM | HOP-92 3.39 µM | IGROV-1 2.29 µM | LOX IMVI 2.46 µM | M14 1.96 µM | MDA-MB-435 1.26 µM | NCI-H226 1.72 µM | NCI-H23 3.96 µM | OVCAR-3 3.44 µM | SF-295 6.44 µM | SK-MEL-5 3.41 µM | SNB-19 12.8 µM | SNB-75 5.08 µM | SR 1.97 µM | UO-31 5.31 µM

C=C1C(=O)OC2CC3(C)OC3CC/C(C)=C/C(OC(C)=O)C12 (stereo not given)
inactive: 786-0 4.6 µM | A498 15.8 µM | BT-549 9.71 µM | COLO 205 1.75 µM | DU-145 15.1 µM | HCC 2998 16.9 µM | HOP-92 1.82 µM | IGROV-1 17.1 µM | LOX IMVI 5.22 µM | M14 3.32 µM | MDA-MB-435 12.6 µM | NCI-H226 7.45 µM | NCI-H23 13.3 µM | OVCAR-3 10.5 µM | SF-295 14 µM | SK-MEL-5 8.02 µM | SNB-19 18.3 µM | SNB-75 8.77 µM | SR 3.07 µM | UO-31 13.6 µM

N=C(N)SCc1cccc(-c2nc3ccccc3c(=O)o2)c1
inactive: 786-0 > 100 µM | A498 > 100 µM | BT-549 > 100 µM | COLO 205 > 100 µM | DU-145 > 100 µM | HCC 2998 > 100 µM | HOP-92 > 100 µM | IGROV-1 > 100 µM | LOX IMVI > 100 µM | M14 > 100 µM | MDA-MB-435 > 100 µM | NCI-H226 > 100 µM | NCI-H23 > 100 µM | OVCAR-3 > 100 µM | SF-295 > 100 µM | SK-MEL-5 > 100 µM | SNB-19 > 100 µM | SNB-75 > 100 µM | SR 95.5 µM | UO-31 > 100 µM

C(=N\c1ccc(-c2nc3ccccc3s2)cc1)/c1ccc[nH]1
inactive: 786-0 21.9 µM | A498 15.7 µM | BT-549 17.3 µM | COLO 205 16.3 µM | DU-145 17.3 µM | HCC 2998 16.5 µM | HOP-92 17.4 µM | IGROV-1 15.1 µM | LOX IMVI 17.3 µM | M14 17.9 µM | MDA-MB-435 19.2 µM | NCI-H226 14.8 µM | NCI-H23 16.8 µM | OVCAR-3 14.7 µM | SF-295 13.3 µM | SK-MEL-5 16.7 µM | SNB-19 29.4 µM | SNB-75 22.2 µM | SR 21.4 µM | UO-31 17.4 µM

O=S1(=O)c2cnccc2N=C(NCc2cccc3ccccc23)N1c1ccccc1
inactive: 786-0 15 µM | A498 > 100 µM | BT-549 > 100 µM | COLO 205 > 85.7 µM | DU-145 > 100 µM | HCC 2998 38.4 µM | HOP-92 > 41.2 µM | IGROV-1 > 61.5 µM | LOX IMVI > 96.8 µM | M14 > 83.9 µM | MDA-MB-435 > 100 µM | NCI-H226 > 100 µM | NCI-H23 36.2 µM | OVCAR-3 > 100 µM | SF-295 62.8 µM | SK-MEL-5 > 95.9 µM | SNB-19 > 100 µM | SNB-75 > 100 µM | SR > 100 µM | UO-31 > 56.5 µM

COc1ccc(CCNC(=O)Cc2ccccc2CO)cc1OC
inactive: 786-0 > 100 µM | A498 > 100 µM | BT-549 > 100 µM | COLO 205 > 100 µM | DU-145 > 100 µM | HCC 2998 > 100 µM | HOP-92 > 100 µM | IGROV-1 > 100 µM | LOX IMVI > 100 µM | M14 > 100 µM | MDA-MB-435 > 100 µM | NCI-H226 > 100 µM | NCI-H23 > 100 µM | OVCAR-3 > 100 µM | SF-295 > 100 µM | SK-MEL-5 > 100 µM | SNB-75 > 100 µM | SR > 100 µM | UO-31 > 100 µM

Cc1c(C)c2c(c(N)c1C#N)C(=O)N(N)C2=O
inactive: 786-0 87.9 µM | A498 40.4 µM | BT-549 > 100 µM | COLO 205 > 100 µM | DU-145 > 100 µM | HCC 2998 > 100 µM | HOP-92 > 100 µM | IGROV-1 > 100 µM | M14 > 100 µM | MDA-MB-435 > 100 µM | NCI-H226 78.7 µM | NCI-H23 > 100 µM | OVCAR-3 > 100 µM | SF-295 > 100 µM | SK-MEL-5 > 100 µM | SNB-19 > 100 µM | SNB-75 47 µM | SR 26.3 µM | UO-31 93.3 µM
